In patent EP4480493A1, “A RECOMBINANT HUMAN ALPHA-1 ANTITRYPSIN GLYCOPROTEIN FOR TREATING NON-VIRAL INFLAMMATORY DISEASES OF THE LUNG” (AATEC Medical GmbH, priority 2023, dated 2024):
Counter-ions that a name gives are not always drawn.

What was measured:
[1] = target: recombinant human TMPRSS2 enzyme (CusaBio #YP023924HU) (human) (UniProt O15393); experiment: cell-based or functional assay
[2] = target: recombinant human TMPRSS2 (Homo sapiens, UniProt O15393); experiment: TMPRSS2 activity assay (fluorogenic AMC substrate); details: read-out: TMPRSS2 IC90
Chain of recombinant human TMPRSS2 (O15393 106-492 limits assumed): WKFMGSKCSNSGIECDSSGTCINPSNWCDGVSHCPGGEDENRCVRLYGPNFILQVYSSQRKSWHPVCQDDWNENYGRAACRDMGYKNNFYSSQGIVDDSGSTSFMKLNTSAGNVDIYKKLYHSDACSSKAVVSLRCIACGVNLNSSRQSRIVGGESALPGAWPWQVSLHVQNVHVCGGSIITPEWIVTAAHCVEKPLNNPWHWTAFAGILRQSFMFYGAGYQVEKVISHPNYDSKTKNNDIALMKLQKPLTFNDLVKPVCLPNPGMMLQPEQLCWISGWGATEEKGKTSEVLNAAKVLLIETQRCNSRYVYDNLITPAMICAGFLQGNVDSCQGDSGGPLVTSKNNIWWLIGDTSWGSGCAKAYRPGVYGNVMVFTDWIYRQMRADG
Method: Fluorescence intensity was measured at an excitation wavelength of 380 nm and emission wavelength of 460 nm. […] Half maximal inhibition concentrations (IC50) were calculated using a non-linear regression model.
In a next step, 50 µl of 20 µM BOC-Gln-Ala-Arg-AMC protease substrate (Bachem #4017019) was added and incubated for 2 h at 37°C. Fluorescence intensity was measured after 2 h at an excitation wavelength of 380 nm and emission wavelength of 460 nm in a SynergyTM H1 microplate reader (BioTek) with Gen5 3.04 software.
Therefore, the ability of rhAAT to inhibit recombinant TMPRSS2 was assessed analogous to the neutrophil elastase measurement.
IC50 and IC90 were calculated using a non-linear regression model in GraphPad Prism 9.

[3] = target: T1, human neutrophil elastase (Homo sapiens, UniProt P08246); experiment: Neutrophil Elastase activity assay (fluorogenic AMC substrate); type: biochemical; parameters: key to Neutrophil Elastase IC50 / Neutrophil Elastase IC90: - = inactive
T1 construct: purchased Merck Millipore 324681
T1 sequence (P08246 30-247 limits assumed): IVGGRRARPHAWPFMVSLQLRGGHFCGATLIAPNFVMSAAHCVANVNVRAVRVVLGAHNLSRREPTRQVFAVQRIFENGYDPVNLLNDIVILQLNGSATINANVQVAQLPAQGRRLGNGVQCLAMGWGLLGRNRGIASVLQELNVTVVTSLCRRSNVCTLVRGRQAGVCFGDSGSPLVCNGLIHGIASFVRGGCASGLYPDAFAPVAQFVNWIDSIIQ

Chain of recombinant human TMPRSS2 enzyme (CusaBio #YP023924HU) (human) (O15393 106-492 limits assumed): as the sequence (O15393 106-492 limits assumed) above

Row | Compound | TMPRSS2 IC50 (TMPRSS2 activity assay, fluorogenic BOC-Gln-Ala-Arg-AMC substrate) [1] [µM] | IC90 [2] [µM] | Neutrophil Elastase IC90 ([3]; non-linear regression) | Neutrophil Elastase IC50 ([3]; non-linear regression, three independent experiments) | inhibition of neutrophil elastase activity ([3]; result in words, Figure 27)
1 | recombinant human alpha-1-antitrypsin (rhAAT) glycoprotein secreted from Pichia pastoris mutS strain 1B6 (from UniProt P01009 25-418) | 0.0741 |  |  |  | 
2 | CN(C)C(=O)COC(=O)Cc1ccc(OC(=O)c2ccc(NC(=N)N)cc2)cc1 [Camostat mesylate] |  | 0.0092 | - | - | did not inhibit
3 | Prolastin (Grifols), human plasma-derived A1AT formulation (from UniProt P01009 25-418) | 0.079 |  |  |  | 
